From EP1897937A1, “Method of culturing NPCs” (NeuroProgen GmbH Leipzig, priority 2006, dated 2008)
Read-outs that look alike come from different tables or passages of the source.

Columns and labels:
hmNPCs [1] = assay: Short-term proliferation: Ki67/nestin immunostaining; type: cell-based, human; details: Homo sapiens, 120 h, 1 µM, 5 subsequent days
Description: To determine long-term proliferation, […] were plated and expanded for 2 passages with or without addition of various agents (see below) to the custom expansion media containing the growth factors EGF and FGF2. Different fetal midbrain tissues were included in this study. At the end of the proliferation period, differentiation of […] was induced via replacement of expansion media with mitogen-free media containing 1% FCS, 5 μM forskoline (Sigma-Aldrich Chemie GmbH Munich, Germany), and 100 pg/ml IL-1β (Sigma). The differentiation and expansion media were supplemented with different drugs as appropriate. Prior to immunocytochemistry or protein extraction, […] were allowed to differentiate for 1 week. To determine short-term proliferation via Ki67 immunostaining, the cells were seeded into 24-well plates (70,000 cells/well) and left overnight to rest. P2 receptor agonists (ATP, UTP, ATP + UTP, ADP, ADPβS) were supplied daily for 5 consecutive days. Ki67/nestin double-positive cells were counted in 8 randomly selected fields of nucleotide-treated or untreated samples. For the assessment of MAPK phosphorylation the cells were kept free of mitogens for 2 d prior to addition of the MEK-inhibitor in expansion media. In addition, the MEK-inhibitor was added during the differentiation period 15 min before UTP administration. […] Cover-slips were mounted onto glass slides and examined under a fluorescence microscope (Zeiss Axiovert 200). Acquisition of the cells was performed using the Image-analysis software AxioVision 4 (Carl Zeiss AG, Jena, Germany). The following primary antibodies were used for immunofluorescence: rabbit polyclonal anti-β-tubulin III (anti-Tuj1) antibody, rabbit polyclonal anti-tyrosine hydroxylase antibody , mouse monoclonal anti-nestin antibody (Pharmingen, San Diego, CA, USA), rabbit polyclonal anti-Ki67 antigen antibody (Novocastra Laboratories Ltd, Newcastle upon Tyne, UK). Estimation of the TH-positive cell numbers was performed by counting of cells among approximately 1000 differentiated cells in total within 6 randomly selected fields.

hmNPCs [2] = assay: Dopaminergic differentiation: TH protein expression by Western blot; type: cell-based, human
Description: To determine long-term proliferation, hmNPCs were plated and expanded for 2 passages with or without addition of various agents (see below) to the custom expansion media containing the growth factors EGF and FGF2. Different fetal midbrain tissues were included in this study. At the end of the proliferation period, differentiation of hmNPCs was induced via replacement of expansion media with mitogen-free media containing 1% FCS, 5 µM forskoline (Sigma-Aldrich Chemie GmbH Munich, Germany), and 100 pg/ml IL-1β (Sigma). The differentiation and expansion media were supplemented with different drugs as appropriate. Prior to immunocytochemistry or protein extraction, hmNPCs were allowed to differentiate for 1 week. To determine short-term proliferation via Ki67 immunostaining, the cells were seeded into 24-well plates (70,000 cells/well) and left overnight to rest. P2 receptor agonists (ATP, UTP, ATP + UTP, ADP, ADPβS) were supplied daily for 5 consecutive days. Ki67/nestin double-positive cells were counted in 8 randomly selected fields of nucleotide-treated or untreated samples. For the assessment of MAPK phosphorylation the cells were kept free of mitogens for 2 d prior to addition of the MEK-inhibitor in expansion media. In addition, the MEK-inhibitor was added during the differentiation period 15 min before UTP administration.
UTP, UDP, ATP, ADP, ADPβS and suramin were purchased from Sigma (Sigma-Aldrich Chemie GmbH Munich, Germany). UTP and UDP were applied at different concentrations (1 µM, 10 µM, 100 µM), ATP at 100 µM, ADP at 100 µM, and ADPβS at100 µM. During expansion of the cells, the nucleotides were renewed once a week with every media change, unless otherwise stated. They were applied once at the beginning of the differentiation period. The P2 receptor antagonist suramin (10 µM) was added to expansion media 30 min prior to addition of UTP (100 µM). The stock solution of the MEK1/2 inhibitor U0126 (Promega Corporation, Mannheim, Germany) was prepared in dimethyl sulfoxide (DMSO) at a concentration of 10 mM. The stock solution was then diluted in 0.1 M PBS to obtain a concentration of 1 mM. MEK inhibitor (final concentration 10 µM) was added to mitogen-free expansion media, 15 min before UTP treatment (1 µM) of hmNPCs.
In order to prepare protein extracts, hmNPCs were collected, washed with ice-cold PBS and lysed in buffer [10 mM HEPES-KOH (pH 7.9), 10 mM KCI, 1.5 mM MgCl2, 0.1% NP-40], supplemented with protease inhibitor cocktail (Roche). After a brief centrifugation at 4°C/10 000×g, protein concentrations and protein yield from extracts were determined using the Bradford method (Bio-Rad, Hercules, CA, USA). To preserve the phosphorylation state of proteins, extracts for the MAPK experiment were obtained using the PhosphoSafe™ extraction reagent containing phophatase inhibitors (Novagen). […] Membranes were blocked with 5% (wt/vol) nonfat dry milk in PBS-T (PBS, 0.1% (vol/vol) Tween 20) for 2 h at room temperature and subsequently incubated with the desired primary antibody (diluted in PBS containing 5% non-fat milk and 0.1% Tween 20) overnight at 4 °C with gentle agitation. The membrane was incubated with horseradish peroxidase-coupled secondary antibody for 1 h at room temperature. Chemiluminescence detection was performed by incubating the membranes with SuperSignal-Dura substrate (Pierce Biotechnology, Rockford, U.S.A) followed by analysis on a CCD cooling camera (Fuji LAS-1000plus). The chemiluminescence was quantified using the AIDA, two-dimensional densitometry software (Raytest lsotopenmeb, Straubenhardt, Germany).

SMILES: O=c1ccn([C@@H]2O[C@H](COP(=O)(O)OP(=O)(O)OP(=O)(O)O)[C@@H](O)[C@H]2O)c(=O)[nH]1 [UTP, uridine 5'-triphosphate]
- activity at 1 µM (hmNPCs [1]; read-out: NPCs double-immunoreactive for Ki67 and nestin): 193 ± 3%
- activity at 1 µM (hmNPCs [1]; read-out: cells immunoreactive for nestin alone): 188 ± 2%
- TH expression (hmNPCs [2]; 1 µM during 2 weeks of expansion, then 100 µM during 1 week of differentiation): 529 ± 20%
- expression of TH (hmNPCs [2]; 100 µM, one week of differentiation): increased
- activity at 100 µM (hmNPCs [2]; Homo sapiens, 100 µM, long-term treatment, read-out: TH protein expression in Western blots as compared to controls): 319 ± 5%
